Experimental data published in patent US9023789B2, “Amylin analogs and pharmaceutical compositions thereof” (Novo Nordisk A/S, priority 2012, dated 2015).
pEC50, pIC50: −log10 of the molar value. Numbered stars: 1 amine (or outer) side, 2 acyl side, 3 side chain; on linkers, the order of the positions; unused ones are H or OH. Bridge positions count the residues as written; N and C are the ends. Side chains are listed from the residue outwards. Peptide text beside a SMILES is read from it. * marks the point of attachment. C20 diacid = O=C(O)CCCCCCCCCCCCCCCCCCC(=O)*; γGlu = O=C(O)[C@H](CCC(=O)[*:2])N[*:1]

How the values were obtained:
[1] = molecular target: T1, human amylin receptor (membranes from Amylin 3(a)/CRE-luc cells) (Homo sapiens, UniProt O60896+P30988); assay: ASSAY (V) binding to the human amylin receptor (SPA, 125I-rat amylin);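 also: competition binding of cell membranes (35 ng/µL) mixed with SPA beads in 384-well plates at 40 µL total volume, read by scintillation counting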
T1 construct: expressed in transfected cells
T1 sequence (P30988 25-474): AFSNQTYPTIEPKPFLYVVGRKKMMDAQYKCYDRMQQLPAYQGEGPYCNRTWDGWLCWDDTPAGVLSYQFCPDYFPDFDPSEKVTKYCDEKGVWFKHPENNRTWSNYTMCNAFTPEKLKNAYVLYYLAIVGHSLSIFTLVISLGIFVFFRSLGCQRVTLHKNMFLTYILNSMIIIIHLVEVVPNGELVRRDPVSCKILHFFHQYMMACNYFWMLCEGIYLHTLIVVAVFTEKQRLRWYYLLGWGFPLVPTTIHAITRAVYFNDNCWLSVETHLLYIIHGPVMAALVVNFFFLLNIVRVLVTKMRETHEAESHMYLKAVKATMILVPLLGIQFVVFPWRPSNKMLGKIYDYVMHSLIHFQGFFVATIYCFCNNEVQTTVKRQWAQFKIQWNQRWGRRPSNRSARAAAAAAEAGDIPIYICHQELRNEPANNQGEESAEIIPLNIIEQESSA
T1 sequence (O60896 24-148 partner): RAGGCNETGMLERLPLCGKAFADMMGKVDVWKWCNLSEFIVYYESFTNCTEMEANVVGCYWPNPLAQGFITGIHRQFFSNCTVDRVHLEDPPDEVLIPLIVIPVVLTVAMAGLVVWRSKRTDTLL

[2] = molecular target: T2, human amylin 3(a) receptor (human calcitonin receptor + RAMP-3) in BHK570 cells (Homo sapiens, UniProt O60896+P30988); assay: ASSAY (II)a functional assay, human amylin receptor (CRE luciferase); format: cell-based
T2 construct: expressed in transfected cells
Method in brief: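 Cells were seeded and cultured overnight, then incubated with standard or sample for 3 h at 37° C in serum-containing medium at pH 7.4. The medium was then swapped for PBS, LucLite was added for 30 min at room temperature, and luminescence was recorded. Cells were BHK with CRE-luc and calcitonin receptor, ± RAMP-3.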

[3] = ASSAY (III) ThT fibrillation assay for physical stability; format: physicochemical
Method in brief: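 Formulations with 1 μM ThT, pH adjusted as required, incubated at 37 °C with 960 rpm orbital shaking; fluorescence (ex 444/em 485 nm) read every 20 min. Fibrillation reported as mean ThT fluorescence ± SD of 4–8 replicates at time points; polypeptide concentration measured by reverse-phase HPLC before and after, post-centrifugation.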

[4] = Table 5, selectivity, hCTR bind IC50 / hAmylin-R bind IC50
[5] = Table 5a, selectivity, hCTR bind IC50 / hAmylin-R bind IC50
[6] = Table 5b, selectivity, hCTR bind IC50 / hAmylin-R bind IC50
[7] = Table 5c, selectivity, hCTR bind IC50 / hAmylin-R bind IC50
[8] = Table 7, human binding selectivity, included for comparison
[9] = Table 7a (preferred compounds), human binding selectivity, included for comparison
[10] = ratio of human calcitonin receptor binding IC50 to human amylin receptor binding IC50
[11] = hCTR funct. EC50 divided by hAmylin-R funct. EC50
[12] = hCTR funct. EC50 over hAmylin-R funct. EC50
[13] = human functional selectivity: hCTR funct. EC50 / hAmylin-R funct. EC50

Row | Ratio hCT/hAmylin binding [1, 4] | Ratio hCT/hAmylin binding [1, 5] | Ratio hCT/hAmylin binding [1, 6] | Ratio hCT/hAmylin binding [1, 7] | Ratio hCT/hAmylin binding [1, 8] | Ratio hCT/hAmylin binding [1, 9] | Ratio hCT/hAmylin binding [1, 10] | Ratio hCT/hAmylin funct. [2, 11] | Ratio hCT/hAmylin funct. [2, 12] | Ratio hCT/hAmylin funct. [2, 13] | ThT pH 4.0 lag time (h) [3] | pIC50 ([1]; Table 4, read-out: hAmylin-R bind IC50) | pEC50 ([2]; human amylin receptor functional potency, assay (II), read-out: hAmylin-R funct. EC50) | Compound
1 | 26.4 | 26.4 | 26.4 | 26.4 | 26.4 | 26.4 | 26.4 | 13.1 | 13.1 | 13.1 | 41 h | – | – | CC[C@H](C)[C@H](NC(=O)[C@H](C)NC(=O)CNC(=O)[C@H](Cc1ccccc1)NC(=O)[C@H](CC(N)=O)NC(=O)[C@@H]1CCCN1C(=O)[C@H](CO)NC(=O)[C@H](CO)NC(=O)[C@H](Cc1c[nH]cn1)NC(=O)[C@H](CCCNC(=N)N)NC(=O)[C@H](CC(C)C)NC(=O)[C@H](Cc1ccccc1)NC(=O)[C@H](CCC(=O)O)NC(=O)[C@H](C)NC(=O)[C@H](CC(C)C)NC(=O)[C@H](CCCNC(=N)N)NC(=O)[C@H](CCC(N)=O)NC(=O)[C@@H](NC(=O)[C@H](C)NC(=O)[C@@H]1CSSC[C@H](NC(=O)[C@@H](N)CCCCNC(=O)CC[C@H](NC(=O)CCCCCCCCCCCCCCCCCCC(=O)O)C(=O)O)C(=O)N[C@@H](CC(N)=O)C(=O)N[C@@H]([C@@H](C)O)C(=O)N[C@@H](C)C(=O)N[C@@H]([C@@H](C)O)C(=O)N1)[C@@H](C)O)C(=O)N1CCC[C@H]1C(=O)N[C@@H](CO)C(=O)N[C@@H](CO)C(=O)N[C@H](C(=O)N[C@@H](CC(N)=O)C(=O)N[C@H](C(=O)NCC(=O)N[C@@H](CO)C(=O)N[C@@H](Cc1c[nH]cn1)C(=O)N[C@H](C(=O)N[C@@H](Cc1ccc(O)cc1)C(N)=O)[C@@H](C)O)C(C)C)[C@@H](C)O [Example 128] (H-K([γGlu-C20 diacid])CNTATCATQRLAEFLRHSSPNFGAIPSSTNVGSHTY-NH2; disulfide 2-7 (inferred); N-terminus assumed)
2 | 151.1 | 151.1 | 151.1 | 151.1 | 151.1 | 151.1 | 151.1 | 24.9 | 24.9 | 24.9 | 45 h | 9.55 | 9.84 | CC[C@H](C)[C@H](NC(=O)[C@H](C)NC(=O)CNC(=O)[C@H](Cc1ccccc1)NC(=O)[C@H](CC(N)=O)NC(=O)[C@@H]1CCCN1C(=O)[C@H](CO)NC(=O)[C@H](CO)NC(=O)[C@H](Cc1c[nH]cn1)NC(=O)[C@H](CCCNC(=N)N)NC(=O)[C@H](CC(C)C)NC(=O)[C@H](Cc1ccccc1)NC(=O)[C@H](CC(=O)O)NC(=O)[C@H](C)NC(=O)[C@H](CC(C)C)NC(=O)[C@H](CCCNC(=N)N)NC(=O)[C@H](CCC(N)=O)NC(=O)[C@@H](NC(=O)[C@H](C)NC(=O)[C@@H]1CSSC[C@H](NC(=O)[C@@H](N)CCCCNC(=O)CC[C@H](NC(=O)CCCCCCCCCCCCCCCCCCC(=O)O)C(=O)O)C(=O)N[C@@H](CC(N)=O)C(=O)N[C@@H]([C@@H](C)O)C(=O)N[C@@H](C)C(=O)N[C@@H]([C@@H](C)O)C(=O)N1)[C@@H](C)O)C(=O)N1CCC[C@H]1C(=O)N[C@@H](CO)C(=O)N[C@@H](CO)C(=O)N[C@H](C(=O)N[C@@H](CC(N)=O)C(=O)N[C@H](C(=O)NCC(=O)N1CCC[C@H]1C(=O)N[C@@H](CCCNC(=N)N)C(=O)N[C@H](C(=O)N[C@@H](Cc1ccc(O)cc1)C(N)=O)[C@@H](C)O)C(C)C)[C@@H](C)O [Example 129] (H-K([γGlu-C20 diacid])CNTATCATQRLADFLRHSSPNFGAIPSSTNVGPRTY-NH2; disulfide 2-7 (inferred); N-terminus assumed)
3 | 280.0 | 280.0 | 280.0 | 280.0 | 280.0 | 280.0 | 280.0 | 44.9 | 44.9 | 44.9 | 45 h | – | – | CC[C@H](C)[C@H](NC(=O)[C@H](C)NC(=O)CNC(=O)[C@H](Cc1ccccc1)NC(=O)[C@H](CC(N)=O)NC(=O)[C@@H]1CCCN1C(=O)[C@H](CO)NC(=O)[C@H](CO)NC(=O)[C@H](Cc1c[nH]cn1)NC(=O)[C@H](CCCNC(=N)N)NC(=O)[C@H](CC(C)C)NC(=O)[C@H](Cc1ccccc1)NC(=O)[C@H](CC(=O)O)NC(=O)[C@H](C)NC(=O)[C@H](CC(C)C)NC(=O)[C@H](CCCNC(=N)N)NC(=O)[C@H](CCC(N)=O)NC(=O)[C@@H](NC(=O)[C@H](C)NC(=O)[C@@H]1CSSC[C@H](NC(=O)[C@@H](N)CCCCNC(=O)CC[C@H](NC(=O)CC[C@H](NC(=O)CCCCCCCCCCCCCCCCCCC(=O)O)C(=O)O)C(=O)O)C(=O)N[C@@H](CC(N)=O)C(=O)N[C@@H]([C@@H](C)O)C(=O)N[C@@H](C)C(=O)N[C@@H]([C@@H](C)O)C(=O)N1)[C@@H](C)O)C(=O)N1CCC[C@H]1C(=O)N[C@@H](CO)C(=O)N[C@@H](CO)C(=O)N[C@H](C(=O)N[C@@H](CC(N)=O)C(=O)N[C@H](C(=O)NCC(=O)N1CCC[C@H]1C(=O)N[C@@H](CCCNC(=N)N)C(=O)N[C@H](C(=O)N[C@@H](Cc1ccc(O)cc1)C(N)=O)[C@@H](C)O)C(C)C)[C@@H](C)O [Example 130] (H-K([γGlu-γGlu-C20 diacid])CNTATCATQRLADFLRHSSPNFGAIPSSTNVGPRTY-NH2; disulfide 2-7 (inferred); N-terminus assumed)
